Read-outs that look alike come from different tables or passages of the source. Positions of bridges follow the written chain, without caps; N, C: chain ends. Non-standard residues stand in square brackets, D forms with d. Residues, ends and D or L forms follow the SMILES beside them. Groups on a side chain read outwards from the residue. *: point of attachment. DOTA = O=C(O)CN1CCN(CC(=O)O)CCN(CC(=O)*)CCN(CC(=O)O)CC1; 2Nal = N[C@@H](Cc1ccc2ccccc2c1)C(=O)O; Lys(iPr) = CC(C)NCCCC[C@H](N)C(=O)O
Assays:
[1] = system: PC3 prostate adenocarcinoma xenografts; test: Biodistribution in PC3 tumor-bearing mice; assay type: in vivo
Experimental: (§1) For Daudi, Z138, GRANTA519 and Jeko1 xenografts, male NOD.Cg-Rag1^tm1MomII2rg^tm1Wjl/SzJ (NRG) mice were subcutaneously inoculated on the left flank with 5×10^6 cells (100 μL; 1:1 ratio of PBS/Matrigel) and tumors were grown to a size of 200-500 mm^3. For PC-3 xenografts, male NOD.Cg-Rag1^tm1MomII2rg^tm1Wjl/SzJ (NRG) mice were subcutaneously inoculated on the left flank with 5×10^6 PC-3 cells (100 μL; 1:1 ratio of PBS/Matrigel) and tumors were grown to a size of 200-400 mm^3.
(§2) The mice were euthanized via CO2 inhalation while anesthetized with isoflurane. Tissues were harvested, washed in PBS, blotted dry, weighed, and measured on a Hidex AMG Automatic Gamma Counter.

[2] = Biodistribution in Z138 tumor-bearing mice; assay type: in vivo; details: male, NOD.Cg-Rag1^tm1MomII2rg^tm1Wjl/SzJ (NRG), mouse, iv, total radioactivity, Z138
Experimental: as §1, §2

[3] = system: Z138 mantle cell lymphoma xenografts; test: Biodistribution in Z138 tumor-bearing mice; assay type: in vivo; details: Z138
Experimental: as §1, §2

[4] = In vivo stability (plasma radio-HPLC) in male NRG mice; details: 5 mins
Text: Radiolabeled peptides (10-30 MBq) was intravenously injected into male NRG mice. After a 5-min, 24-hour or 120-hour uptake period, mice were sedated/euthanized, and blood was collected. The plasma was isolated and analyzed with analytical radio-HPLC following published procedures (Lin et al., Cancer Res. 2015, 75:387-393).

[5] = 1 h blocked (7.5 μg LY2510924 i.p.)

In the case of `CC(C)NCCCC[C@@H]1NC(=O)[C@H](Cc2ccc(O)cc2)NC(=O)[C@H](Cc2ccccc2)NC(=O)CC[C@H](C(=O)N[C@@H](CCCCNC(C)C)C(=O)N[C@@H](CCCCNC(=O)[C@H](CCC(=O)O)NC(=O)[C@H](CCC(=O)O)NC(=O)[C@H](CCC(=O)O)NC(=O)CN2CCN(CC(=O)O)CCN(CC(=O)O)CCN(CC(=O)O)CC2)C(N)=O)NC(=O)CNC(=O)[C@H](Cc2ccc3ccccc3c2)NC(=O)[C@@H](CCCNC(=N)N)NC1=O` [[^68Ga]Ga-BL02, metal not drawn] (FY[Lys(iPr)][dR][2Nal]G[dE][Lys(iPr)]K([Glu-Glu-Glu-DOTA])-NH2; lactam N-7), the “Ratio Tumor: Blood” value ([1]; 1 h) is reported as 5.74, the “Ratio Tumor: Bone” value ([1]; 1 h) is reported as 15.68 and the “Ratio Tumor: Liver” value ([1]; 1 h) is reported as 3.31. The “Ratio Tumor: Lung” value ([1]; 1 h) was 3.71, the “Ratio Tumor: Muscle” value ([1]; 1 h) was 23.74 and the “Ratio Tumor: Spleen” value ([1]; 1 h) was 6.62. For the same compound, the “Ratio Tumor: Blood” value [1, 5] was 1.56, the “Ratio Tumor: Bone” value [1, 5] was 6.16 and the “Ratio Tumor: Liver” value [1, 5] was 1.62. For the same compound, the “Ratio Tumor: Lung” value [1, 5] was 1.36, the “Ratio Tumor: Muscle” value [1, 5] was 7.68 and the “Ratio Tumor: Spleen” value [1, 5] was 2.16. For the same compound, the “Ratio Tumor: Blood” value ([1]; 2h) was 25.33, the “Ratio Tumor: Bone” value ([1]; 2h) was 13.96 and the “Ratio Tumor: Liver” value ([1]; 2h) was 1.99. The “Ratio Tumor: Lung” value ([1]; 2h) was 4.36, the “Ratio Tumor: Muscle” value ([1]; 2h) was 55.01 and the “Ratio Tumor: Spleen” value ([1]; 2h) was 5.63. It also gave a tissue uptake at 1 h ([2]; Z138 tumor, 1 h, read-out: Biodistribution Z138 (tumor)) of 12.9 %ID/g, a tissue uptake at 1 h ([2]; Z138 tumor, 1 h blocked (7.5 μg LY2510924 i.p.), read-out: Biodistribution Z138 (tumor)) of 2.86 %ID/g and a tissue uptake at 1 h ([2]; adrenals, 1 h, read-out: Biodistribution Adrenals) of 0.14 %ID/g. It also gave a tissue uptake at 1 h ([2]; adrenals, 1 h blocked (7.5 μg LY2510924 i.p.), read-out: Biodistribution Adrenals) of 0.59 %ID/g, a tissue uptake at 1 h ([2]; blood, 1 h, read-out: Biodistribution Blood) of 0.3 %ID/g and a tissue uptake at 1 h ([2]; blood, 1 h blocked (7.5 μg LY2510924 i.p.), read-out: Biodistribution Blood) of 0.83 %ID/g. It also gave a tissue uptake at 1 h ([2]; bone, 1 h, read-out: Biodistribution Bone) of 0.08 %ID/g, a tissue uptake at 1 h ([2]; bone, 1 h blocked (7.5 μg LY2510924 i.p.), read-out: Biodistribution Bone) of 0.2 %ID/g and a tissue uptake at 1 h ([2]; brain, 1 h, read-out: Biodistribution Brain) of 0.01 %ID/g. It also gave a tissue uptake at 1 h ([2]; brain, 1 h blocked (7.5 μg LY2510924 i.p.), read-out: Biodistribution Brain) of 0.02 %ID/g, a tissue uptake at 1 h ([2]; fat, 1 h, read-out: Biodistribution Fat) of 0.04 %ID/g and a tissue uptake at 1 h ([2]; fat, 1 h blocked (7.5 μg LY2510924 i.p.), read-out: Biodistribution Fat) of 0.14 %ID/g. The tissue uptake at 1 h ([2]; heart, 1 h, read-out: Biodistribution Heart) was 0.11 %ID/g, the tissue uptake at 1 h ([2]; heart, 1 h blocked (7.5 μg LY2510924 i.p.), read-out: Biodistribution Heart) was 0.24 %ID/g and the tissue uptake at 1 h ([2]; intestine, 1 h, read-out: Biodistribution Intestine) was 0.19 %ID/g. The tissue uptake at 1 h ([2]; intestine, 1 h blocked (7.5 μg LY2510924 i.p.), read-out: Biodistribution Intestine) was 0.61 %ID/g, the tissue uptake at 1 h ([2]; kidney, 1 h, read-out: Biodistribution Kidney) was 3.48 %ID/g and the tissue uptake at 1 h ([2]; kidney, 1 h blocked (7.5 μg LY2510924 i.p.), read-out: Biodistribution Kidney) was 7.86 %ID/g. For the same compound, the tissue uptake at 1 h ([2]; liver, 1 h, read-out: Biodistribution Liver) was 0.48 %ID/g, the tissue uptake at 1 h ([2]; liver, 1 h blocked (7.5 μg LY2510924 i.p.), read-out: Biodistribution Liver) was 0.55 %ID/g and the tissue uptake at 1 h ([2]; lung, 1 h, read-out: Biodistribution Lung) was 0.5 %ID/g. It also gave a tissue uptake at 1 h ([2]; lung, 1 h blocked (7.5 μg LY2510924 i.p.), read-out: Biodistribution Lung) of 0.85 %ID/g, a tissue uptake at 1 h ([2]; muscle, 1 h, read-out: Biodistribution Muscle) of 0.05 %ID/g and a tissue uptake at 1 h ([2]; muscle, 1 h blocked (7.5 μg LY2510924 i.p.), read-out: Biodistribution Muscle) of 0.15 %ID/g. It also gave a tissue uptake at 1 h ([2]; pancreas, 1 h, read-out: Biodistribution Pancreas) of 0.08 %ID/g, a tissue uptake at 1 h ([2]; pancreas, 1 h blocked (7.5 μg LY2510924 i.p.), read-out: Biodistribution Pancreas) of 0.21 %ID/g and a tissue uptake at 1 h ([2]; spleen, 1 h, read-out: Biodistribution Spleen) of 0.33 %ID/g. For the same compound, the tissue uptake at 1 h ([2]; spleen, 1 h blocked (7.5 μg LY2510924 i.p.), read-out: Biodistribution Spleen) was 0.43 %ID/g, the tissue uptake at 1 h ([2]; stomach, 1 h, read-out: Biodistribution Stomach) was 0.07 %ID/g and the tissue uptake at 1 h ([2]; stomach, 1 h blocked (7.5 μg LY2510924 i.p.), read-out: Biodistribution Stomach) was 0.16 %ID/g. For the same compound, the tissue uptake at 1 h ([2]; testes, 1 h, read-out: Biodistribution Testes) was 0.11 %ID/g, the tissue uptake at 1 h ([2]; testes, 1 h blocked (7.5 μg LY2510924 i.p.), read-out: Biodistribution Testes) was 0.26 %ID/g and the “Ratio Tumor: Blood” value ([3]; 1 h) was 43.12. For the same compound, the “Ratio Tumor: Bone” value ([3]; 1 h) was 163.06, the “Ratio Tumor: Liver” value ([3]; 1 h) was 26.89 and the “Ratio Tumor: Lung” value ([3]; 1 h) was 26.39. The “Ratio Tumor: Muscle” value ([3]; 1 h) was 240.96, the “Ratio Tumor: Spleen” value ([3]; 1 h) was 39.22 and the “Ratio Tumor: Blood” value [3, 5] was 3.94. For the same compound, the “Ratio Tumor: Bone” value [3, 5] was 19.08, the “Ratio Tumor: Liver” value [3, 5] was 5.23 and the “Ratio Tumor: Lung” value [3, 5] was 3.65. For the same compound, the “Ratio Tumor: Muscle” value [3, 5] was 21.59, the “Ratio Tumor: Spleen” value [3, 5] was 7.40 and the “% Intact Peptide” value [4] was >99%.
